From PMC10900488, “Synthesis and Evaluation of (Bis)benzyltetrahydroisoquinoline Alkaloids as Antiparasitic Agents” (JACS Au, 2024)

tested on: not listed separately; assay: Mammalian toxicity, MTT colorimetric; assay type: cell-based, murine; conditions: mouse
Experimental: Table 1 depicts the antileishmanial (L. infantum) activity evaluation performed against both the amastigote form (evaluated microscopically using an ex vivo intracellular model of mice macrophages) and the promastigote one (using an MTT colorimetric method).[32],[33] The cytotoxicity was evaluated against NCTC cells using an MTT colorimetric method and the selectivity index was determined using the ratio between the CC50 values (NCTC cells) and the IC50 values (amastigotes).[32] […] With respect to the substituents on the C ring, larger, hydrophobic groups conferred greater bioactivity (e.g., 9b–d), whereas small, hydrophilic groups such as a hydroxyl group afford modest to poor bioactivity. […]
Murine conjunctive fibroblasts NCTC clone 929 (ATCC) were maintained in 10% foetal calf serum supplemented RPMI-1640 medium (pH 7.2) at 37 °C in a humidified incubator with 5% CO2. […]
(§1) Biological activity assays […]
NCTC cells (6 × 10^4/well) were added to a 96-well plate. Treatments of the cells with selected compounds (serially diluted 1.5 to 200 μM) was performed in a humidified incubator for 96 h at 37 °C and with 5% CO2.
The MTT colorimetric method was used to determine the 50% cytotoxic concentration (CC50) and the selectivity index (CC50 against NCTC cells/IC50 against amastigotes).15 […]
[…] At 6 h and 24 h post-treatment, a 1 mL aliquot was taken for imaging. The cell cycle experiment was preformed twice independently.
Generation of mNG::RAD51 tagged cell line
The single-stranded DNA-binding protein RAD51, associated with DNA Repair, LmxM.28.0550 was tagged with endogenous fluorescent protein mNeonGreen (mNG) at the N-terminus. […]
Primers for constructs and sgRNA were designed using LeishGEdit (http://www.leishGEdit.net).
PCR was at 94 °C for 5 min, followed by 35 cycles at 94 °C (15 sec), 65 °C (15 sec), 72 °C (2 min) then finally 72 °C (1 min).
PCR was at 94 °C for 30 sec, followed by 30 cycles at 94 °C (30 sec), 60 °C (30 sec), 72 °C (30 sec) then finally 72 °C (2 min). […] Combined PCR products were precipitated for 20 min with 10 μL 3M sodium acetate and 300 μL EtOH, pelleted at 14000 min-1 30 min, washed once with 70% EtOH, re-pelleted and resuspended in […]
Promastigotes (1 × 10^7 cells) were combined with PCR products and transfected using the Amaxa Nucleofector II.17 Electroporation was performed using 2 mm cuvettes on the X-100 program, followed by immediate suspension in pre-warmed M199 medium. Successful transfectants were selected with 20 μg mL-1 Puromycin 15 h after transfection, taking 4 days to reach stable growth in culture. mNG::RAD51 nuclear foci studies mNG::RAD51 promastigotes (5 × 10^6 cells mL-1) in 7 mL of M199 medium were treated with 7 μL o f compound (S)-9a or (S)-9b dissolved in DMSO giving a final concentration of 50 μM. Phleomycin was used as a positive control at a final concentration of 25 μg mL-1. At T = 0, 15, 30, 60 min, and 2, 6, 24 h post-treatment a 0.8 mL aliquot was taken for imaging.

SMILES	CC50 at 96 h [µM]
COc1cc2c(cc1OC)[C@H](Cc1ccc(OCc3ccccc3)cc1)N(C)CC2 [(S)-9d]	6.6 ± 1.5
O=C(Cn1ccnc1[N+](=O)[O-])NCc1ccccc1 [benznidazole, reference compound]	> 200
CCCCCCCCCCCCCCCCOP(=O)([O-])OCC[N+](C)(C)C [miltefosine, reference compound]	120 ± 4.2

same assay, conditions: mouse; ± SD; NCTC cells, MTT, 96 h; read-out: CC50

SMILES	CC50 at 96 h [µM]
COc1ccc(C[C@@H]2c3cc(OC)c(OC)cc3CCN2C)cc1O [(R)-10a, (–)-laudanidine]	> 200
COc1ccc(C[C@H]2c3cc(OC)c(OC)cc3CCN2C)cc1O [(S)-10a, (+)-laudanidine]	> 200

tested on: L. infantum promastigotes; assay: Antipromastigote assay (L. infantum), MTT colorimetric; assay type: cell-based, Leishmania (L.) infantum; conditions: Leishmania infantum, 48 h, read-out: L. infantum IC50 promastigotes
Experimental: (§2) Table 1 depicts the antileishmanial (L. infantum) activity evaluation performed against both the amastigote form (evaluated microscopically using an ex vivo intracellular model of mice macrophages) and the promastigote one (using an MTT colorimetric method).[32],[33] The cytotoxicity was evaluated against NCTC cells using an MTT colorimetric method and the selectivity index was determined using the ratio between the CC50 values (NCTC cells) and the IC50 values (amastigotes).[32] […] With respect to the substituents on the C ring, larger, hydrophobic groups conferred greater bioactivity (e.g., 9b–d), whereas small, hydrophilic groups such as a hydroxyl group afford modest to poor bioactivity.
(§3) Leishmania (L.) infantum (MHOM/BR/1972/LD) amastigotes were obtained from golden hamsters (Mesocricetus auratus) spleens following 60-70 days of infection via differential centrifugation. The Stauber method was used to determine the number of parasites.12 […]
Biological activity assays
Antipromastigote Assay (L. infantum)
L. infantum promastigotes (1 × 10^6 cells/well) were added to a 96-well plates. Treatment of the cells with selected compounds (serially diluted 0.14 to 200 μM) was performed in M199 medium supplemented with 0.25% hemin and 10% fetal bovine serum for 48 h at 24 °C. The MTT colorimetric assay was used to determine the activity (IC50) of the compounds. Miltefosine was used as a standard drug and untreated promastigotes were used as a negative control. The half inhibitory concentration (IC50) was determined from a sigmoidal regression of the concentration-response curves generated in GraphPadPrism7. […]

SMILES	IC50 [µM]
COc1ccc(C[C@@H]2c3cc(OC)c(OC)cc3CCN2C)cc1O [(R)-10a, (–)-laudanidine]	30.2 ± 4.8
COc1ccc(C[C@H]2c3cc(OC)c(OC)cc3CCN2C)cc1O [(S)-10a, (+)-laudanidine]	95.4 ± 2

same assay, conditions: Leishmania infantum; ± SD; MTT, 48 h; read-out: L. infantum IC50 promastigotes

IC50 [µM]	SMILES
3.7 ± 0.2	COc1cc2c(cc1OC)[C@H](Cc1ccc(OCc3ccccc3)cc1)N(C)CC2 [(S)-9d]

tested on: T. cruzi trypomastigotes; assay: Antitrypomastigote assay (T. cruzi), resazurin; assay type: cell-based, Trypanosoma (T.) cruzi; conditions: Trypanosoma cruzi, 24 h, read-out: T. cruzi IC50 trypomastigotes
Experimental: (§4) T. cruzi also assumes several cell morphologies during its lifecycle, which differ between the insect vector and mammalian host. In the latter environment, the parasite transitions between extracellular bloodstream trypomastigotes and intracellular amastigotes; both forms are clinically relevant, particularly during the acute stage of Chagas disease.[34] In this work, antitrypanosomal activity was tested against both the amastigote form (evaluated microscopically using an ex vivo intracellular model using mice macrophages) and the trypomastigote form (using the resazurin in vitro assay).[33],[35] […] In silico predictions of pharmacokinetic profiles were carried out using the SwissADME webtool (see the Supporting Information for details).[36] […]
(§5) […] Cultivation was performed in 2% fetal calf serum supplemented RPMI-1640 medium.
(§6) The trypomastigotes were maintained in a humidified incubator at 37 °C and with 5% CO2. […]
as §1
The half inhibitory concentration (IC50) was determined from a sigmoidal regression of the concentration-response curves generated in GraphPadPrism7. […]
Treatment of the cells with selected compounds (serially diluted 1.2 to 150 μM) was performed in a humidified incubator in RPMI 1640 medium for 24 h at 37 °C and with 5% CO2. Resazurin (0.011% in PBS) was added subsequently to verify parasite viability. Benznidazole was used as a standard drug. The optical density was determined at 570 nm using the FilterMax F5 (Molecular Devices). […]

SMILES	IC50 [µM]
COc1ccc(C[C@@H]2c3cc(OC)c(OC)cc3CCN2C)cc1O [(R)-10a, (–)-laudanidine]	> 150
COc1ccc(C[C@H]2c3cc(OC)c(OC)cc3CCN2C)cc1O [(S)-10a, (+)-laudanidine]	> 150

same assay, conditions: Trypanosoma cruzi, 24 h, ± SD, resazurin, read-out: T. cruzi IC50 trypomastigotes

IC50 [µM]	SMILES
< 10	COc1cc2c(cc1OC)[C@H](Cc1ccc(OCc3ccccc3)cc1)N(C)CC2 [(S)-9d]
12.8 ± 0.7	O=C(Cn1ccnc1[N+](=O)[O-])NCc1ccccc1 [benznidazole, reference compound]

same assay, conditions: ± SD; resazurin, 24 h; read-out: T. cruzi IC50 trypomastigotes

IC50 [µM]	SMILES
7.6 ± 0.4	COc1cc2c(cc1OC)[C@H](Cc1ccc(OCc3ccccc3)cc1)N(C)CC2 [(S)-9d]

tested on: T. cruzi amastigotes; assay: Antiamastigote assay (T. cruzi), ex vivo intracellular model using mice macrophages, microscopy; assay type: cell-based, Trypanosoma (T.) cruzi; conditions: Trypanosoma cruzi, Peritoneal macrophage, 48 h, read-out: T. cruzi IC50 amastigotes, ± SD
Experimental: as §4, §5, §6
(§7) Peritoneal macrophages were obtained via washing the peritoneal cavity of BALB/c mice with 10% foetal calf serum supplemented RPMI-1640 medium (pH 7.2). The macrophages were maintained in a humidified incubator at 37 °C and with 5% CO2.
as §1
Peritoneal macrophages (1 × 10^5 cells/well) obtained from the peritoneal cavity of BALB/C mice were added to 16-well chambers (NUNC, Thermo Fischer Scientific). The cells were infected with trypomastigotes (10:1 parasites/macrophage) for 2 h. Then treatment of the infected macrophages with selected compounds (serially diluted 1.2 to 100 μM) was performed in a humidified incubator for 48 h at 37 °C and with 5% CO2. The treated cells were fixed on slides using methanol, stained with Giemsa and observed under a light microscope (EVOS M5000, Thermo, USA) with digital image equipment. The infection index was used in order to determine the half inhibitory concentration (IC50) (no. infected macrophages × no. amastigotes / total no.

SMILES	IC50 [µM]
COc1ccc(C[C@H]2c3cc(OC)c(OC)cc3CCN2C)cc1O [(S)-10a, (+)-laudanidine]	< 10

same assay, conditions: Trypanosoma cruzi, Peritoneal macrophage, 48 h, ± SD, read-out: T. cruzi IC50 amastigotes

IC50 [µM]	SMILES
3.2 ± 0.5	COc1cc2c(cc1OC)[C@H](Cc1ccc(OCc3ccccc3)cc1)N(C)CC2 [(S)-9d]
5 ± 1.5	O=C(Cn1ccnc1[N+](=O)[O-])NCc1ccccc1 [benznidazole, reference compound]

same assay, conditions: read-out: T. cruzi IC50 amastigotes, ± SD, peritoneal macrophages, 48 h

SMILES	IC50 [µM]
COc1ccc(C[C@H]2c3cc(OC)c(OC)cc3CCN2C)cc1O [(S)-10a, (+)-laudanidine]	5.9 ± 0.9

tested on: L. infantum amastigotes; assay: Antiamastigote assay (L. infantum), ex vivo intracellular model of mice macrophages, microscopy; assay type: cell-based, Leishmania (L.) infantum; conditions: Leishmania infantum, Peritoneal macrophage, 96 h, read-out: L. infantum IC50 amastigotes
Experimental: as §2, §3, §7, §1
Antiamastigote Assay (L. infantum)
Peritoneal macrophages (1 × 10^5/well) were added to a 16-well slide chambers (NUNC) and incubated with 5% CO2 at 37 °C. The cells were subsequently infected with L. infantum amastigotes (10:1 amastigotes/macrophage) for 24 h. Treatment of the cells with selected compounds (serially diluted 1.2 to 150 μM) was performed in a humidified incubator for 96 h at 37 °C and with 5% CO2. Untreated cells were used as a negative control and miltefosine was used as a standard drug. The treated cells were fixed on slides with methanol, stained with Giemsa and observed under a light microscope.13 The infection index was used in order to determine the half inhibitory concentration (IC50) (no. infected macrophages × no. amastigotes / total no. […]

SMILES	IC50 [µM]
COc1ccc(C[C@@H]2c3cc(OC)c(OC)cc3CCN2C)cc1O [(R)-10a, (–)-laudanidine]	> 150
COc1ccc(C[C@H]2c3cc(OC)c(OC)cc3CCN2C)cc1O [(S)-10a, (+)-laudanidine]	> 150

same assay, conditions: Leishmania infantum, Peritoneal macrophage, 96 h, ± SD, intracellular, peritoneal macrophages, read-out: L. infantum IC50 amastigotes

IC50 [µM]	SMILES
< 10	COc1cc2c(cc1OC)[C@H](Cc1ccc(OCc3ccccc3)cc1)N(C)CC2 [(S)-9d]
6.5 ± 3	CCCCCCCCCCCCCCCCOP(=O)([O-])OCC[N+](C)(C)C [miltefosine, reference compound]

same assay, conditions: ± SD; intracellular, peritoneal macrophages, 96 h; read-out: L. infantum IC50 amastigotes

IC50 [µM]	SMILES
7.5 ± 2.2	COc1cc2c(cc1OC)[C@H](Cc1ccc(OCc3ccccc3)cc1)N(C)CC2 [(S)-9d]
